# PubChem BioAssay AID2060622 (Molecular Pharmacology Branch, DTP, NCI, 2025)
# Where “and” joins values, the source holds several entries; their conditions need not be identical. Equal values may be shown once.
# Tested on: 242566-281-R-J2-PDC complex spheroid viability
# Assay: Anticancer human tumor 242566-281-R-J2-PDC patient-derived pancreatic carcinoma cell line growth inhibition [CLK]
# Conditions: for viability, T/C: stronger effect = lower value
# Method in brief: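 Multi-cell-type spheroids combined patient-derived tumor cells with HUVEC endothelial cells and human mesenchymal stem cells. Paired agents were dosed in half-log steps down from about clinical Cmax, or from 10 microM where Cmax was unknown.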
# [1] = curve of first compound, second compound 0.0316 µM
# [2] = curve of first compound, second compound 0.1 µM
# [3] = curve of first compound, second compound 0.316 µM
# [4] = curve of first compound, second compound 1 µM
# [5] = curve of first compound, second compound 3.16 µM
# [6] = curve of first compound, second compound 10 µM
# [7] = second compound 0.0316 µM, first compound 0.0316 µM
# [8] = second compound 0.0316 µM, first compound 0.1 µM
# [9] = second compound 0.0316 µM, first compound 0.316 µM
# [10] = second compound 0.0316 µM, first compound 1 µM
# [11] = second compound 0.0316 µM, first compound 3.16 µM
# [12] = second compound 0.0316 µM, first compound 10 µM
# [13] = second compound 0.1 µM, first compound 0.0316 µM
# [14] = second compound 0.1 µM, first compound 0.1 µM
# [15] = second compound 0.1 µM, first compound 0.316 µM
# [16] = second compound 0.1 µM, first compound 1 µM
# [17] = second compound 0.1 µM, first compound 3.16 µM
# [18] = second compound 0.1 µM, first compound 10 µM
# [19] = second compound 0.316 µM, first compound 0.0316 µM
# [20] = second compound 0.316 µM, first compound 0.1 µM
# [21] = second compound 0.316 µM, first compound 0.316 µM
# [22] = second compound 0.316 µM, first compound 1 µM
# [23] = second compound 0.316 µM, first compound 3.16 µM
# [24] = second compound 0.316 µM, first compound 10 µM
# [25] = second compound 1 µM, first compound 0.0316 µM
# [26] = second compound 1 µM, first compound 0.1 µM
# [27] = second compound 1 µM, first compound 0.316 µM
# [28] = second compound 1 µM, first compound 1 µM
# [29] = second compound 1 µM, first compound 3.16 µM
# [30] = second compound 1 µM, first compound 10 µM
# [31] = second compound 3.16 µM, first compound 0.0316 µM
# [32] = second compound 3.16 µM, first compound 0.1 µM
# [33] = second compound 3.16 µM, first compound 0.316 µM
# [34] = second compound 3.16 µM, first compound 1 µM
# [35] = second compound 3.16 µM, first compound 3.16 µM
# [36] = second compound 3.16 µM, first compound 10 µM
# [37] = second compound 10 µM, first compound 0.0316 µM
# [38] = second compound 10 µM, first compound 0.1 µM
# [39] = second compound 10 µM, first compound 0.316 µM
# [40] = second compound 10 µM, first compound 1 µM
# [41] = second compound 10 µM, first compound 3.16 µM
# [42] = second compound 10 µM, first compound 10 µM
# 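Also: spheroids exposed to compounds for 7 days before readout.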
# 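For viability, T/C in this document: 100% = DMSO vehicle control wells.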
compound,measurement,setting,value
CC(C)CC(NC(=O)C(Cc1ccccc1)NC(=O)c1cnccn1)B(O)O (stereo not drawn) + CNC(=O)c1ccc(Nc2nc(OC3CCCC3)c3c(-c4ccc5nc(C)oc5c4)c[nH]c3n2)c(OC)c1,IC50,[1],4.24 nM
same,IC50,[2],3.81 nM
same,IC50,[3],2.77 nM
same,IC50,[4],1.56 nM
same,IC50,[5],1.19 nM
same,IC50,[6],1.15 nM
same,"viability, T/C","second compound 0.0316 µM, first compound 0.000949 µM",82.2%
same,"viability, T/C","second compound 0.0316 µM, first compound 0.003 µM",71.1%
same,"viability, T/C","second compound 0.0316 µM, first compound 0.00949 µM",0.73%
same,"viability, T/C","second compound 0.0316 µM, first compound 0.03 µM",0.63%
same,"viability, T/C","second compound 0.0316 µM, first compound 0.0949 µM",0.4%
same,"viability, T/C","second compound 0.0316 µM, first compound 0.3 µM",0.56%
same,"viability, T/C","second compound 0.1 µM, first compound 0.000949 µM",83.3%
same,"viability, T/C","second compound 0.1 µM, first compound 0.003 µM",62.8%
same,"viability, T/C","second compound 0.1 µM, first compound 0.00949 µM",0.92%
same,"viability, T/C","second compound 0.1 µM, first compound 0.03 µM",0.76%
same,"viability, T/C","second compound 0.1 µM, first compound 0.0949 µM",0.35%
same,"viability, T/C","second compound 0.1 µM, first compound 0.3 µM",0.57%
same,"viability, T/C","second compound 0.316 µM, first compound 0.000949 µM",83%
same,"viability, T/C","second compound 0.316 µM, first compound 0.003 µM",47.5%
same,"viability, T/C","second compound 0.316 µM, first compound 0.00949 µM",0.7%
same,"viability, T/C","second compound 0.316 µM, first compound 0.03 µM",0.78%
same,"viability, T/C","second compound 0.316 µM, first compound 0.0949 µM",0.3%
same,"viability, T/C","second compound 0.316 µM, first compound 0.3 µM",0.78%
same,"viability, T/C","second compound 1 µM, first compound 0.000949 µM",73.2%
same,"viability, T/C","second compound 1 µM, first compound 0.003 µM",19.7%
same,"viability, T/C","second compound 1 µM, first compound 0.00949 µM",0.52%
same,"viability, T/C","second compound 1 µM, first compound 0.03 µM",0.28%
same,"viability, T/C","second compound 1 µM, first compound 0.0949 µM",0.45%
same,"viability, T/C","second compound 1 µM, first compound 0.3 µM",0.4%
same,"viability, T/C","second compound 3.16 µM, first compound 0.000949 µM",60.6%
same,"viability, T/C","second compound 3.16 µM, first compound 0.003 µM",6.63%
same,"viability, T/C","second compound 3.16 µM, first compound 0.00949 µM",0.34%
same,"viability, T/C","second compound 3.16 µM, first compound 0.03 µM",0.29%
same,"viability, T/C","second compound 3.16 µM, first compound 0.0949 µM",0.35%
same,"viability, T/C","second compound 3.16 µM, first compound 0.3 µM",0.37%
same,"viability, T/C","second compound 10 µM, first compound 0.000949 µM",59.4%
same,"viability, T/C","second compound 10 µM, first compound 0.003 µM",3.83%
same,"viability, T/C","second compound 10 µM, first compound 0.00949 µM",0.57%
same,"viability, T/C","second compound 10 µM, first compound 0.03 µM",0.53%
same,"viability, T/C","second compound 10 µM, first compound 0.0949 µM",0.43%
same,"viability, T/C","second compound 10 µM, first compound 0.3 µM",0.42%
O=C(c1cc(Cc2n[nH]c(=O)c3ccccc23)ccc1F)N1CCN(C(=O)C2CC2)CC1 + CNC(=O)c1ccc(Nc2nc(OC3CCCC3)c3c(-c4ccc5nc(C)oc5c4)c[nH]c3n2)c(OC)c1,IC50,[1],> 10000 nM
same,IC50,[2],> 10000 nM
same,IC50,[3],> 10000 nM
same,IC50,[4],> 10000 nM
same,IC50,[5],> 10000 nM
same,IC50,[6],> 10000 nM
same,"viability, T/C",[7],94.9%
same,"viability, T/C",[8],110%
same,"viability, T/C",[9],96.1%
same,"viability, T/C",[10],115%
same,"viability, T/C",[11],95.6%
same,"viability, T/C",[12],81.9%
same,"viability, T/C",[13],97.9%
same,"viability, T/C",[14],98.4%
same,"viability, T/C",[15],117%
same,"viability, T/C",[16],98.4%
same,"viability, T/C",[17],88.4%
same,"viability, T/C",[18],70.3%
same,"viability, T/C",[19],92.6%
same,"viability, T/C",[20],83.6%
same,"viability, T/C",[21],87.6%
same,"viability, T/C",[22],92.7%
same,"viability, T/C",[23],92%
same,"viability, T/C",[24],65%
same,"viability, T/C",[25],81.9%
same,"viability, T/C",[26],57.1%
same,"viability, T/C",[27],65.5%
same,"viability, T/C",[28],69.8%
same,"viability, T/C",[29],70.5%
same,"viability, T/C",[30],55.3%
same,"viability, T/C",[31],63%
same,"viability, T/C",[32],60%
same,"viability, T/C",[33],58.6%
same,"viability, T/C",[34],51.7%
same,"viability, T/C",[35],52.2%
same,"viability, T/C",[36],56.2%
same,"viability, T/C",[37],52.5%
same,"viability, T/C",[38],52.2%
same,"viability, T/C",[39],52.7%
same,"viability, T/C",[40],52.5%
same,"viability, T/C",[41],46%
same,"viability, T/C",[42],57.6%
CCCS(=O)(=O)Nc1ccc(F)c(C(=O)c2c[nH]c3ncc(-c4ccc(Cl)cc4)cc23)c1F + CN1CCN(c2cc(C(=O)Nc3cc4cc(-c5cnn(C)c5)ccc4cn3)ccn2)CC1,IC50,[1],5800 nM
same,IC50,[2],5580 nM
same,IC50,[3],< 31.6 nM
same,IC50,[4],< 31.6 nM
same,IC50,[5],< 31.6 nM
same,IC50,[6],< 31.6 nM
same,"viability, T/C",[7],98.8%
same,"viability, T/C",[8],93.1%
same,"viability, T/C",[9],96.3%
same,"viability, T/C",[10],126%
same,"viability, T/C",[11],97.3%
same,"viability, T/C",[12],7.56%
same,"viability, T/C",[13],84.8%
same,"viability, T/C",[14],102%
same,"viability, T/C",[15],87.5%
same,"viability, T/C",[16],109%
same,"viability, T/C",[17],89.6%
same,"viability, T/C",[18],8.92%
same,"viability, T/C",[19],42.3%
same,"viability, T/C",[20],44.7%
same,"viability, T/C",[21],45.2%
same,"viability, T/C",[22],40.5%
same,"viability, T/C",[23],33.1%
same,"viability, T/C",[24],8.52%
same,"viability, T/C",[25],4.91%
same,"viability, T/C",[26],5.46%
same,"viability, T/C",[27],4.96%
same,"viability, T/C",[28],5.32%
same,"viability, T/C",[29],5.68%
same,"viability, T/C",[30],5.62%
same,"viability, T/C",[31],7.02%
same,"viability, T/C",[32],8.45%
same,"viability, T/C",[33],6.23%
same,"viability, T/C",[34],8.2%
same,"viability, T/C",[35],10.1%
same,"viability, T/C",[36],9.62%
same,"viability, T/C",[37],2.81%
same,"viability, T/C",[38],2.91%
same,"viability, T/C",[39],2.02%
same,"viability, T/C",[40],2.43%
same,"viability, T/C",[41],2.11%
same,"viability, T/C",[42],1.29%
CC(Nc1ccc2c(c1)OCCn1cc(N3C(=O)OCC3C(F)F)nc1-2)C(N)=O (stereo not drawn),"viability, T/C",compound 0.0316 µM,98.6% and 96.1%
same,"viability, T/C",compound 0.1 µM,91.6% and 97.8%
same,"viability, T/C",compound 0.316 µM,71.3% and 89.9%
same,"viability, T/C",compound 1 µM,51.9% and 68.2%
same,"viability, T/C",compound 3.16 µM,36.4% and 46.8%
same,"viability, T/C",compound 10 µM,21.7% and 32.6%
same,IC50,curve of compound,1180 nM and 2540 nM
